The values that follow come from ChEMBL document CHEMBL1150612, “Naturally occurring cembranes from an Australian sarcophyton species” (J Nat Prod, 2002).

Calls of active or inactive are those of the source. The calls are words filed in the database; no cut-off is given here.

Experiment [1] deals with T1, Adenosine receptor A1 (Rattus norvegicus) (UniProt P25099).
T1 sequence (whole entry): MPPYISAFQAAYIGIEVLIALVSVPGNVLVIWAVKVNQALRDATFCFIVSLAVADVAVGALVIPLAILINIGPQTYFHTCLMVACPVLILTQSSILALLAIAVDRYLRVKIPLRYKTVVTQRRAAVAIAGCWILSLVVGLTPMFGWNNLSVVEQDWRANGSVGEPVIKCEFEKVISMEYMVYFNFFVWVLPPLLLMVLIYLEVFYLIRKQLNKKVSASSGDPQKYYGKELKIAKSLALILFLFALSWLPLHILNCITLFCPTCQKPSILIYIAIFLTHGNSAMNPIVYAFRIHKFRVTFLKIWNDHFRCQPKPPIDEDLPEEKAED
In words: Displacement of [3H]DPCPX from rat brain adenosine A1 receptor up to […].

For another experiment, the target named is T2, Adenosine receptor A1 (Rattus norvegicus, UniProt P25099).
T2 sequence (P25099 whole entry): T1 sequence (whole entry)
Description: Displacement of [3H]DPCPX from rat brain adenosine A1 receptor.

For `C=C1CC[C@@H]2O[C@@]2(C)CC[C@@H](C(C)C)/C=C/[C@](C)(O)CC[C@@H]1O`, in experiment [1], the outcome was inactive. Broadly, the IC50 is the concentration at which inhibition is half-maximal. A lower IC50 goes with inhibition by little substance. Regarding `CC(C)[C@H]1/C=C/[C@](C)(O)C/C=C/[C@](C)(O)CC[C@@H]2O[C@@]2(C)CC1`, the IC50 on Adenosine receptor A1 came out at 300 µM.

In the case of `C=C1CC[C@@H]2O[C@@]2(C)CC[C@@H](C(C)C)/C=C/[C@](C)(O)CC[C@H]1O`, the result in experiment [1] was inactive. In the case of `CC(C)[C@H]1/C=C/[C@](C)(O)C/C=C/[C@@](C)(O)CC[C@@H]2O[C@@]2(C)CC1`, the half-maximal inhibitory concentration (IC50) at Adenosine receptor A1 came out at 300 µM.
